# Laboratory results taken from PubChem BioAssay (NCI).
#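 Each compound was tested at five concentrations against cells in 96-well plates for 48 hours. The concentration for 50% growth inhibition is given as GI50. At the TGI there is no net growth.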
# What was measured:
# Test in all cases: DTP human tumour cell line panel, 48 h
# EKVX NSCLC = system: EKVX NSCLC
# NCI-H226 lung = system: NCI-H226 lung
# A549 NSCLC = system: A549 NSCLC
# SN12C renal = system: SN12C renal
# MALME-3M melanoma = system: MALME-3M melanoma
# COLO 205 colon = system: COLO 205 colon
# ACHN renal = system: ACHN renal
# DLD-1 colon = system: DLD-1 colon
# TK-10 renal = system: TK-10 renal
# M19-MEL melanoma = system: M19-MEL melanoma
Structure (SMILES),TGI (EKVX NSCLC) [µM],TGI (NCI-H226 lung) [µM],TGI (A549 NSCLC) [µM],TGI (SN12C renal) [µM],TGI (MALME-3M melanoma) [µM],TGI (COLO 205 colon) [µM],TGI (ACHN renal) [µM],TGI (DLD-1 colon) [µM],TGI (TK-10 renal) [µM],TGI (M19-MEL melanoma) [µM],GI50 (EKVX NSCLC) [µM],GI50 (NCI-H226 lung) [µM],GI50 (A549 NSCLC) [µM],GI50 (SN12C renal) [µM],GI50 (MALME-3M melanoma) [µM],GI50 (COLO 205 colon) [µM],GI50 (ACHN renal) [µM],GI50 (TK-10 renal) [µM]
Cc1ccc2c(C3Cc4ccccc4N3C(=O)/C=C\C(=O)O)c(C)[nH]c2c1 (centres undefined),> 100,> 100,> 100,> 100,> 100,58.5,> 100,> 100,> 100,> 100,–,–,–,–,–,–,–,–
N#CC(C#N)=C1NC(=O)CC(=O)N1,> 100,> 100,> 100,> 100,> 100,> 100,–,> 100,> 100,> 100,–,–,–,–,–,–,–,–
O=C1NC(=O)C2C(=O)NC(=O)C1C2c1c(Cl)cccc1Cl (centres undefined),> 100,> 100,> 100,> 100,> 100,> 56.3,> 100,> 60.8,> 100,–,–,–,–,–,–,–,–,–
CC(=O)Nc1ccc(SC#N)c2c(NC(C)=O)cccc12,> 100,> 100,> 100,> 100,> 100,> 100,> 100,> 100,> 100,> 100,–,–,–,–,–,–,–,–
CCC(=O)C12OC3OC(C)(C)OC3C1OC(C)(C)O2 (centres undefined),> 100,> 100,> 100,> 100,> 100,–,> 100,> 100,> 100,> 100,–,–,–,–,–,–,–,–
N#CC(=C1C=CC(=NO)C=C1)c1ccc(Cl)cc1,–,–,49.7,58.7,60.7,34.5,24.9,39,75,46.9,–,–,–,–,–,–,–,–
O=C1CC(c2c[nH]c3ccccc23)C(=O)N1 (centres undefined),> 100,> 100,> 100,–,> 100,–,> 100,> 100,> 100,> 100,–,–,–,–,–,–,–,–
COc1cc(C(=O)C/C(CCC(=O)Nc2ccccc2[N+](=O)[O-])=N\NC(N)=O)ccc1O,> 100,> 100,> 100,> 100,> 100,> 100,> 100,–,> 100,> 100,–,–,–,–,–,–,–,–
COC(=O)C1CC2CC(=NNC(N)=O)CC2C1 (centres undefined),> 100,–,> 100,> 100,> 100,> 100,> 100,> 100,> 100,> 100,–,–,–,–,–,–,–,–
O=C(/C=C/c1ccccc1)CCN1CCOCC1,30.6,51.6,56.8,35.9,36.4,20,28.6,22.1,26.7,28.3,–,–,–,–,–,–,–,–
CCN(CC)CC1c2ccccc2C(CNc2ccccc2)N1C (centres undefined),> 100,–,> 100,> 100,> 100,> 100,> 100,> 100,> 100,> 100,–,–,–,–,–,–,–,–
Cc1[nH]c2ccccc2c1C(=O)CC1(O)C(=O)Nc2c(Cl)cc(Cl)cc21 (centres undefined),–,42.7,96.3,55.6,36.1,61.7,53.5,> 100,> 100,24.6,–,–,–,–,–,–,–,–
Cc1ccc(-c2nnc(-c3nn(-c4ccccc4)c4nc5ccccc5nc34)o2)cc1,> 100,30,41.4,> 100,–,> 100,35.2,> 100,31.2,> 100,–,–,–,–,–,–,–,–
CC1(O)C=CC(=O)C=C1,> 100,> 100,> 100,> 100,39.5,> 100,> 62.8,28.2,> 93,58.6,–,–,–,–,–,–,–,–
COc1cc2c(c(OC)c1OC)-c1ccc(SC)c(=O)cc1C(NC(=O)c1ccccc1)CC2 (centres undefined),> 100,–,65.9,52.6,32.7,< 0.01,> 63.1,> 100,64.4,> 100,–,–,–,–,–,–,–,–
COC(=O)C1(C)CCc2c(OC)ccc(OC)c2C1=O (centres undefined),> 100,> 100,> 100,> 100,> 100,> 100,> 100,> 100,> 100,> 100,–,–,–,–,–,–,–,–
Cc1cccc(C)c1NC(=O)/C(=N/NC(N)=S)C(C)C(=O)c1ccc(Cl)cc1 (centres undefined),> 100,> 100,> 100,> 100,> 100,> 100,> 100,> 100,> 100,> 100,–,–,–,–,–,–,–,–
CCOC(=O)C1C(=S)NC(=O)C1C#N (centres undefined),> 100,–,> 100,> 100,> 100,> 100,> 100,> 100,> 100,> 100,–,–,–,–,–,–,–,–
N#CC1(C(N)=O)C(c2ccc(Cl)cc2)CC(=O)CC1c1ccc(Cl)cc1 (centres undefined),32.7,31.6,39.8,35.3,33.4,30.4,57.8,–,39.5,–,15.5,16,18.1,19.4,15.7,15.6,21.8,17.1
COc1cc2c(cc1C1COc3cc4occc4cc3C1=O)OCO2 (centres undefined),> 100,> 100,> 100,> 100,> 100,> 100,> 100,–,> 100,–,–,–,–,–,–,–,–,–
COc1ccccc1-c1cc(=O)c2cc(C)cnc2[nH]1,> 100,> 100,> 100,> 100,> 100,52.5,> 100,–,> 100,–,–,–,–,–,–,–,–,–
C[C@@H]1CN(Cc2ccc(F)cc2)[C@@H](C)CN1C(=O)c1cc2c(C(=O)C(=O)N(C)C)cn(C)c2cc1Cl,89.8,31.1,> 92.4,43.5,37.7,25.4,> 54.6,–,> 89.7,–,20.7,12.2,24,15.7,17.2,7.66,16.6,30.3
